# Experimental data taken from article PMC4628008, “Characterization of Lactobacillus salivarius alanine racemase: short-chain carboxylate-activation and the role of A131” (SpringerPlus, 2015).
# Changes are numbered by the printed parent chain. Numbers in names are those of the source.
# T1: L. salivarius alanine racemase (ALR) (Ligilactobacillus salivarius, UniProt Q1WV14)
# T1 construct: full-length ORF in pET-28a (NdeI/XhoI, own stop codon), N-terminal His tag, tag kept; E. coli BL21-CodonPlus(DE3)-RIPL
# T1 sequence (Q1WV14 1-371): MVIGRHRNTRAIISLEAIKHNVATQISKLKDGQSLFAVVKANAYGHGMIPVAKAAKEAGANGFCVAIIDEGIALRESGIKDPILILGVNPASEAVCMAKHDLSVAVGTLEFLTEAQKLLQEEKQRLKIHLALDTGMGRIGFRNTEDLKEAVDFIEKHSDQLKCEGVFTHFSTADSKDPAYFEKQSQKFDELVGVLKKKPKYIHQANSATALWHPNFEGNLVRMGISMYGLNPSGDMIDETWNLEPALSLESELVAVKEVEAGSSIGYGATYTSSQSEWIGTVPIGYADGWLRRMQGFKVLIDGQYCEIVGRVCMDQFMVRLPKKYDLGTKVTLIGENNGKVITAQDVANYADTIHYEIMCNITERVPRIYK
# B1: L. salivarius alanine racemase (ALR) (Ligilactobacillus salivarius UCC118) (protein)
# chain: T1 sequence (Q1WV14 1-371)
# B2: L. salivarius alanine racemase (ALR) (Ligilactobacillus salivarius UCC118; A131K) (protein)
# chain: T1 sequence (Q1WV14 1-371) with A131K
# Assays:
# [1] = target: T1, L. salivarius alanine racemase (ALR); test: UPLC activity assay; type: biochemical; conditions: 20 mM L-alanine; 0.05 mM PLP; pH 7.0 (MES), 30 °C
# [2] = target: T2, L. salivarius alanine racemase (ALR) (Ligilactobacillus salivarius, UniProt Q1WV14, A131K); test: UPLC activity assay; type: biochemical; conditions: 20 mM L-alanine; 0.05 mM PLP; pH 7.0 (MES), 30 °C
# T2 construct: full-length ORF in pET-28a (NdeI/XhoI, own stop codon), N-terminal His tag, tag kept; E. coli BL21-CodonPlus(DE3)-RIPL
# [3] = target: T1, L. salivarius alanine racemase (ALR); test: UPLC activity assay; type: biochemical; conditions: 20 mM L-alanine; 0.05 mM PLP; pH 7.0 (MES), 30 °C; activator
# [4] = substrate: C[C@H](N)C(=O)O; test: purified protein; conditions: no acetate, 0.05 mM PLP, pH 7.0 (MES), 30 °C
# T2 sequence (Q1WV14 whole entry A131K): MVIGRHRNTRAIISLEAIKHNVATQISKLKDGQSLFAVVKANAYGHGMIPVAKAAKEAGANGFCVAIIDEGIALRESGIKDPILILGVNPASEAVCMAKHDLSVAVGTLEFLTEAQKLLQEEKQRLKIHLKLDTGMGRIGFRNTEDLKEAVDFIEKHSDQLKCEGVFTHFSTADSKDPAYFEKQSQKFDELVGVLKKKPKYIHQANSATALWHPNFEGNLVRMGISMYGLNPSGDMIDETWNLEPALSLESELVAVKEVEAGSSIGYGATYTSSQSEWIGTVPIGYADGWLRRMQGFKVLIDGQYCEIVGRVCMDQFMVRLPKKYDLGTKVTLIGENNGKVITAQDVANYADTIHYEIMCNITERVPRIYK
Molecule,relative activity at 1 mM (inhibition) [1],relative activity at 1 mM (inhibition) [2],relative activity at 1 mM (activation) [3],Km [4] [mM]
"CC(O)C(=O)O (racemic) [D, L-lactate]","ALR and ALR^A131K were both inhibited by D, L-lactate","ALR and ALR^A131K were both inhibited by D, L-lactate",–,–
CCCC(=O)O [butyrate],–,both propionate and butyrate strongly inhibited ALR^A131K,they strongly activated L. salivarius ALR,–
O=C(O)CC(=O)C(=O)O [oxaloacetate],–,"succinate, pyruvate, 2-oxoglutarate, oxaloacetate and aspartate also more strongly inhibited ALR^A131K than ALR",–,–
CCC(=O)O [propionate],–,both propionate and butyrate strongly inhibited ALR^A131K,they strongly activated L. salivarius ALR,–
CC(=O)C(=O)O [pyruvate],–,"succinate, pyruvate, 2-oxoglutarate, oxaloacetate and aspartate also more strongly inhibited ALR^A131K than ALR",–,–
B1,–,–,–,11.5
B2,–,–,–,9.20
